Our source for the EC50 values is ChEMBL document CHEMBL3886244, “Benzoxazole- and tetrahydrobenzoxazole-substituted pyridazinones as GPR119 agonists” (2014).

The assay concerns the target T1, Glucose-dependent insulinotropic receptor (Homo sapiens, UniProt Q8TDV5).
T1 sequence (Q8TDV5 whole entry): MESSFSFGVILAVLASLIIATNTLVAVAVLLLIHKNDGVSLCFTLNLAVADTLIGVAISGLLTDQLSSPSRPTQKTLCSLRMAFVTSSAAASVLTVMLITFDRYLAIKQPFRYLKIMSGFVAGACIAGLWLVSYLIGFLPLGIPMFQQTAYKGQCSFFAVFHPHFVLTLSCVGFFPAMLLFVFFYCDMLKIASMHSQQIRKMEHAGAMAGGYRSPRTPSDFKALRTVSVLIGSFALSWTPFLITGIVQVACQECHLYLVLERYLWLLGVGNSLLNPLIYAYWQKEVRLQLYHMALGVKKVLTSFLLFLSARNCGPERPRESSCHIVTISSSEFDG
Put plainly: AlphaScreen cAMP Assay: MIN6 cells [Miyazaki J et al. Endocrinology. 1990 July; 127(1):126-32] were stably transfected with an expression vector for human GPR119 cDNA (Acc. No. NP-848566). Min-6/hGPR119 cells are cultured in DMEM, 10% FBS, 50 uM beta-mercaptoethanol, 0.3 mg/mL Geniticin, 2 mM GlutaMAX at 37 C. 5% CO2. For the assay, the cells are placed in Optiplates (white, 384-well, 160W-barcoded, TC, sterile with lid, Cat. No. #6007688 (Perkin Elmer); 10000 cells/well; 50 ul). The plates covered with lids are then incubated for 24 hours at 37 C./5% CO2.After the medium has been sucked out of the wells completely, 10 ul of the test compound are added, the compounds are diluted beforehand with stimulating buffer (140 mM NaCl, 3.6 mM KCl, 0.5 mM NaH2PO4, 0.5 mM MgSO4, 1.5 mM CaCl2, 10 mM Hepes, 5 mM NaHCO3; pH 7.4. 0.5 mM IBMX and 0.1% BSA, the final DMSO concentration is 1%). After 45 minutes' incubation at RT, the cAMP concentrations are determined using the AlphaScreen cAMP Assay. Format: functional, cell-based.
With `CC[C@H]1CC(=O)NN=C1c1ccc2nc(-c3ccccc3)oc2c1`, the concentration for a half-maximal effect (EC50) was more than 10000 nM. For the compound `CC1CC(=O)NN=C1c1ccc2nc(-c3ccsc3)oc2c1` (stereo not drawn), the 50% effective concentration (EC50) amounted to 267 nM. For `CCOc1ccc(-c2nc3ccc(C4=NNC(=O)CC4CC)cc3o2)cc1` (stereo not drawn), the half-maximal effective concentration (EC50) turned out to be 114 nM.
